Results from ChEMBL document CHEMBL1201862, “PubChem BioAssay data set” (2004).
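Dose response: 5 concentrations. Exposure: 48 h. Format: 96-well plates. Endpoint: linear interpolation; highest concentration if not reached. The concentration for 50% growth inhibition is given as GI50.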 Calls of active or inactive are those of the source. No stated cut-off is given here; in the data, active = GI50 up to about 1.1 µM and inactive = higher.

Key:
Assay in all cases: growth of human tumour cells (NCI), 48 h
SF-268 = test system: SF-268
SW-620 = test system: SW-620
KM12 = test system: KM12
MOLT-4 = test system: MOLT-4
Malme-3M = test system: Malme-3M
SK-MEL-28 = test system: SK-MEL-28
SNB-75 = test system: SNB-75
CCRF-CEM = test system: CCRF-CEM
SNB-19 = test system: SNB-19
HCT-116 = test system: HCT-116
786-0 = test system: 786-0
CAKI-1 = test system: CAKI-1
NCI-H460 = test system: NCI-H460
UO-31 = test system: UO-31
A498 = test system: A498
ACHN = test system: ACHN
OVCAR-8 = test system: OVCAR-8
M14 = test system: M14

Measured: GI50

O=C(O)CS [THIOGLYCOLIC ACID]
inactive: SF-268 > 100 µM | SW-620 > 100 µM | KM12 > 100 µM | MOLT-4 > 100 µM | Malme-3M > 100 µM | SK-MEL-28 > 100 µM | SNB-75 > 100 µM | CCRF-CEM > 100 µM | SNB-19 > 100 µM | HCT-116 > 100 µM | 786-0 > 100 µM | CAKI-1 > 100 µM | NCI-H460 > 100 µM | UO-31 > 100 µM

CN(C)c1snc2c1c(=O)n(C)c(=O)n2C
inactive: SF-268 > 100 µM | SW-620 > 100 µM | MOLT-4 > 100 µM | A498 > 100 µM | Malme-3M > 100 µM | SK-MEL-28 > 100 µM | SNB-75 35.7 µM | CCRF-CEM > 100 µM | SNB-19 > 100 µM | ACHN > 100 µM | HCT-116 > 100 µM | 786-0 > 100 µM | CAKI-1 > 100 µM | OVCAR-8 > 100 µM | NCI-H460 > 100 µM | UO-31 > 100 µM

FC(F)(F)c1ccccc1C1SCc2nc3ccccc3n21 (stereo not drawn)
inactive: SF-268 61.9 µM | SW-620 > 100 µM | KM12 70.8 µM | MOLT-4 23.9 µM | A498 12.3 µM | Malme-3M 25.4 µM | SK-MEL-28 77.8 µM | SNB-75 > 100 µM | CCRF-CEM 27.4 µM | SNB-19 > 100 µM | ACHN 40.6 µM | HCT-116 39.1 µM | 786-0 > 100 µM | CAKI-1 32.6 µM | OVCAR-8 61.4 µM | UO-31 49.7 µM

COC(=O)C(C(=O)C(=O)Nc1nc2ccc(OC)cc2s1)c1cnc2ccccc2n1 (stereo not drawn)
inactive: SF-268 > 100 µM | SW-620 > 100 µM | KM12 > 100 µM | MOLT-4 > 100 µM | A498 > 100 µM | Malme-3M > 100 µM | SK-MEL-28 > 100 µM | SNB-75 > 100 µM | M14 > 100 µM | SNB-19 > 100 µM | ACHN > 100 µM | HCT-116 > 100 µM | 786-0 > 100 µM | CAKI-1 > 100 µM | NCI-H460 > 100 µM | UO-31 > 100 µM

CCN1C(=O)C/C(=C\C(C)=O)Nc2ccccc21
inactive: SF-268 > 100 µM | SW-620 > 100 µM | KM12 > 100 µM | MOLT-4 > 100 µM | Malme-3M > 100 µM | SK-MEL-28 > 100 µM | SNB-75 21.5 µM | M14 > 100 µM | CCRF-CEM > 100 µM | SNB-19 > 100 µM | HCT-116 > 100 µM | 786-0 > 100 µM | CAKI-1 > 100 µM | OVCAR-8 > 100 µM | NCI-H460 > 100 µM | UO-31 > 100 µM

O=C(O)c1ccc(/N=N/c2cc(S(=O)(=O)O)c3cccnc3c2O)cc1
inactive: SF-268 > 100 µM | SW-620 > 100 µM | KM12 > 100 µM | MOLT-4 > 100 µM | A498 > 100 µM | Malme-3M > 100 µM | SK-MEL-28 > 100 µM | SNB-75 > 100 µM | SNB-19 > 100 µM | ACHN > 100 µM | HCT-116 > 100 µM | 786-0 > 100 µM | CAKI-1 > 100 µM | OVCAR-8 > 100 µM | NCI-H460 > 100 µM | UO-31 > 100 µM

CCCCOC(=O)NC(=O)c1cn(CCSCCOC(=O)NCCCCCCNC(=O)OCCSCCn2cc(C(=O)NC(=O)OCCCC)c(=O)[nH]c2=O)c(=O)[nH]c1=O
inactive: SF-268 > 100 µM | SW-620 > 10 µM | KM12 > 100 µM | A498 29.4 µM | Malme-3M 29.7 µM | SK-MEL-28 > 100 µM | SNB-75 19 µM | M14 58.9 µM | SNB-19 26.6 µM | ACHN > 100 µM | HCT-116 73.8 µM | 786-0 32.3 µM | NCI-H460 > 100 µM | UO-31 > 100 µM
